Assay results from ChEMBL document CHEMBL1147999, “Caffeoylglycolic and caffeoylamino acid derivatives, halfmers of L-chicoric acid, as new HIV-1 integrase inhibitors” (Eur J Med Chem, 2007).
pEC50, pIC50: −log10 of the molar value. Calls of active or inactive are those of the source. The calls are words filed in the database; no cut-off is given here.

biological target: Human immunodeficiency virus type 1 integrase (Human immunodeficiency virus 1, UniProt Q7ZJM1); experiment: Inhibition of recombinant HIV1 integrase expressed in Escherichia coli; settings: not given
Sequence (Q7ZJM1 whole entry): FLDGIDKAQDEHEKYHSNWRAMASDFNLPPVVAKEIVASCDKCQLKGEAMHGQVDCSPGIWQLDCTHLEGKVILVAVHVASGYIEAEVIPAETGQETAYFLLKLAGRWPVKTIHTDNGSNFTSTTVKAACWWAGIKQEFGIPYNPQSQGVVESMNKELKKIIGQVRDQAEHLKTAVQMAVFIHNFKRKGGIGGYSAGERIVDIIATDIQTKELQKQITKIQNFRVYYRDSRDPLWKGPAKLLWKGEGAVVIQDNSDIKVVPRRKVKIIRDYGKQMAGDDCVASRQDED

SMILES | pIC50
O=C(O)COC(=O)/C=C/c1ccc(O)c(O)c1 | 4.98
O=C(/C=C/c1ccc(O)c(O)c1)NC(Cc1ccc(O)cc1)C(=O)O (centres undefined) | 3.89
O=C(/C=C/c1ccc(O)c(O)c1)NC(Cc1ccccc1)C(=O)O (centres undefined) | 4.02
COc1cc(/C=C/C(=O)OCC(=O)O)ccc1O | < 3.52
CC(NC(=O)/C=C/c1ccc(O)c(O)c1)C(=O)O (centres undefined) | 3.83

The remaining lines, values ahead:

pIC50 | SMILES
3.89 | CC(OC(=O)/C=C/c1ccc(O)c(O)c1)C(=O)O (centres undefined)
3.77 | O=C(O)CNC(=O)/C=C/c1ccc(O)c(O)c1
3.89 | CC(C)CC(NC(=O)/C=C/c1ccc(O)c(O)c1)C(=O)O (centres undefined)
4.92 | O=C(/C=C/c1ccc(O)c(O)c1)NC(Cc1ccc(O)c(O)c1)C(=O)O (centres undefined)
< 3.52 | COc1ccc(/C=C/C(=O)OCC(=O)O)cc1OC

test system: Human immunodeficiency virus 1; experiment: Antiviral activity against HIV1 3B in MT4 cells at 200 uM; type: functional, organism-based; settings: not given

SMILES | Activity
CC(OC(=O)/C=C/c1ccc(O)c(O)c1)C(=O)O (centres undefined) | inactive
O=C(/C=C/c1ccc(O)c(O)c1)NC(Cc1ccc(O)c(O)c1)C(=O)O (centres undefined) | inactive

same assay, conditions: Human immunodeficiency virus 1, 3B

pEC50 | SMILES | CC50 [µM]
5.12 | O=C(/C=C/c1ccc(O)c(O)c1)O[C@H](C(=O)O)[C@@H](OC(=O)/C=C/c1ccc(O)c(O)c1)C(=O)O | > 42.2
